{"source": "paper PMC10377753", "about": "“Pharmacokinetic and pharmacodynamic properties of polymyxin B in Escherichia coli and Klebsiella pneumoniae murine infection models” (Journal of Antimicrobial Chemotherapy, 2023)", "key": {"[1]": {"test_system": "four E. coli and four K. pneumoniae strains", "experiment": "Dose-response study, thigh infection model, summary over all eight isolates", "type": "in vivo, Escherichia coli, Klebsiella pneumoniae", "details": "q6h dosing, mouse thigh infection", "method": "Experiments were carried out in the Erasmus Laboratory Animal Science Centre in Rotterdam, The Netherlands in accordance with the EU Animal Directive 2010/63/EU 2010 directive[14] (licence number AVD101002016702) as described before,[15] with approval of the institutional Animal Welfare Body. Outbred female CD-1 mice obtained from Charles River Germany, weighing 20–25 g, 7–8 weeks old, were used in the experiments. The mice were housed under standard conditions with drink and feed supplied ad libitum.\nMice were rendered neutropenic by intraperitoneal injection of cyclophosphamide of 150 and 100 mg/kg, 4 days and 1 day before infection, respectively. […]\nAnimals were humanely euthanized 24 h (t = 24 h) after the first dose, unless the welfare of the animals necessitated earlier termination, following animal welfare regulations. […] The following day, colonies were counted and the number of cfu per thigh was calculated.\nThe drug effect was determined by the difference between the log10 cfu values at t = 0 h (mean value of two mice) and t = 24 h (value of individual mice) expressed as Δlog10 cfu. […]\nA sigmoid maximum effect (Emax) model was fitted to the PK/PD index versus Δlog10 cfu data by non-linear regression, and static or a 1 log or 2 log kill effect were determined using GraphPad Prism 8.0 (GraphPad, Inc., San Diego, CA, USA). […]"}, "plasma proteins": {"test_system": "plasma proteins", "experiment": "Plasma protein binding by ultrafiltration", "type": "in vitro ADME", "details": "plasma of infected mice treated with polymyxin B, corrected for non-specific binding, LC-MS/MS, mean ± SD, no concentration dependency", "method": "The binding of polymyxin B to plasma proteins was determined via ultrafiltration. Polymyxins have a tendency to non-specifically bind to different kinds of material, including ultrafiltration filters. Thus, to correct for polymyxin B loss on the filter, an experiment was performed in which ultrafiltrated (UF) phosphate buffer was spiked with multiple polymyxin B concentrations (ranging from 0.75 to 8 mg/L) and subsequently concentrations were measured. […] Using this relationship, the non-specific binding (NSB) for each measured polymyxin B UF concentration was calculated. Correction for the measured polymyxin B UF concentration using this NSB value was according to the following formula: polymyxin B UF Corrected Concentration = Measured polymyxin B UF Concentration × (1−NSB).\nPolymyxin B concentrations in plasma, BAL and ultrafiltrates were determined by a validated LC-MS/MS method,[18] with a lower limit of quantification (LOQ) of 0.2 mg/L for plasma and 0.05 mg/L for BAL fluid and ultrafiltrates. […] The residues were dissolved in 0.1 mL of 0.1% formic acid in water and analysed by LC-MS/MS. […] Polymyxin B was analysed on an XBridge C18 column (5 µm, 2.1 × 150 mm; Waters). […] Calibration curves of polymyxin B ranged from 0.1 to 10 mg/L for plasma and ultrafiltrates, and were quantified with a quadratic regression mode. […]"}}, "note": "Counter-ions that a name gives are not always drawn. Bridge positions count the residues as written; N and C are the ends. Square brackets hold non-standard residues; d marks the D form. Peptide text beside a SMILES is read from it. * marks the point of attachment. X1 = CC[C@H](C)CCCCC(=O)*; Dab = NCC[C@H](N)C(=O)O", "data": [{"smiles": "CC[C@H](C)CCCCC(=O)N[C@@H](CCN)C(=O)N[C@H](C(=O)N[C@@H](CCN)C(=O)N[C@H]1CCNC(=O)[C@H]([C@@H](C)O)NC(=O)[C@H](CCN)NC(=O)[C@H](CCN)NC(=O)[C@H](CC(C)C)NC(=O)[C@@H](Cc2ccccc2)NC(=O)[C@H](CCN)NC1=O)[C@@H](C)O", "note": "[polymyxin B, Polymyxin B sulphate salt] (X1-[Dab]T[Dab][Dab][Dab][dF]L[Dab][Dab]T; lactam 4-C)", "values": [{"measurement": "Isolates in which a 1 log kill effect was observed", "setting": "[1]", "result": "3/8"}, {"measurement": "Isolates in which a 2 log kill effect was observed", "setting": "[1]", "result": "1/8"}, {"measurement": "%fu (percent fraction unbound)", "setting": "plasma proteins", "result": "20% ± 4.0%"}]}]}
